ChEMBL document CHEMBL5465560, “Selectivity Literature for EUbOPEN Chemogenomic Library” (2024)

Assays:
[1] = target: T1, Serine/threonine-protein kinase DCLK3 (Homo sapiens) (UniProt Q9C098); conditions: at 10 µM
T1 sequence (whole entry): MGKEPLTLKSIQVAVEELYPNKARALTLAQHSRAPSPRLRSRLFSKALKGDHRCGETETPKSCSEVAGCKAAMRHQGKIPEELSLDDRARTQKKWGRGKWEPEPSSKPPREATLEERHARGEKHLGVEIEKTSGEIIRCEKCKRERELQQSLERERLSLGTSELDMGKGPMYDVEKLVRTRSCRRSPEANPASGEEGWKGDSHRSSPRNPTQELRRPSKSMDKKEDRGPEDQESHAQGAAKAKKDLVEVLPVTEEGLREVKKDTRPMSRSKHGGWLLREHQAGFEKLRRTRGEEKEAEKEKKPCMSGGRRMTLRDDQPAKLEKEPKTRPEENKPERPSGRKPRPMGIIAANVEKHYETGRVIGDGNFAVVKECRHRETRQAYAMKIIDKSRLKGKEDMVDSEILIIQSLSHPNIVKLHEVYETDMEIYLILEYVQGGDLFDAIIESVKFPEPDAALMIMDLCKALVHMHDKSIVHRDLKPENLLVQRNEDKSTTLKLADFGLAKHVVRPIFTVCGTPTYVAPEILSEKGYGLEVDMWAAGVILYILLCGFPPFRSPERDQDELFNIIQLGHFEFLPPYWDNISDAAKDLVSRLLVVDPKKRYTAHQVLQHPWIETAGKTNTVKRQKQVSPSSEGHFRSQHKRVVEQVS

[2] = target: Serine/threonine-protein kinase MRCK gamma (Homo sapiens) (UniProt Q6DT37); assay: Selectivity interaction (KinomeScan (DiscoverX)) EUB0000655a CDC42BPG; conditions: at 10 µM
[3] = target: T2, Protein kinase C epsilon type (Homo sapiens) (UniProt Q02156); assay: Selectivity interaction (Millipore kinase profiler) EUB0000124b PRKCE; conditions: at 10 µM
T2 sequence (whole entry): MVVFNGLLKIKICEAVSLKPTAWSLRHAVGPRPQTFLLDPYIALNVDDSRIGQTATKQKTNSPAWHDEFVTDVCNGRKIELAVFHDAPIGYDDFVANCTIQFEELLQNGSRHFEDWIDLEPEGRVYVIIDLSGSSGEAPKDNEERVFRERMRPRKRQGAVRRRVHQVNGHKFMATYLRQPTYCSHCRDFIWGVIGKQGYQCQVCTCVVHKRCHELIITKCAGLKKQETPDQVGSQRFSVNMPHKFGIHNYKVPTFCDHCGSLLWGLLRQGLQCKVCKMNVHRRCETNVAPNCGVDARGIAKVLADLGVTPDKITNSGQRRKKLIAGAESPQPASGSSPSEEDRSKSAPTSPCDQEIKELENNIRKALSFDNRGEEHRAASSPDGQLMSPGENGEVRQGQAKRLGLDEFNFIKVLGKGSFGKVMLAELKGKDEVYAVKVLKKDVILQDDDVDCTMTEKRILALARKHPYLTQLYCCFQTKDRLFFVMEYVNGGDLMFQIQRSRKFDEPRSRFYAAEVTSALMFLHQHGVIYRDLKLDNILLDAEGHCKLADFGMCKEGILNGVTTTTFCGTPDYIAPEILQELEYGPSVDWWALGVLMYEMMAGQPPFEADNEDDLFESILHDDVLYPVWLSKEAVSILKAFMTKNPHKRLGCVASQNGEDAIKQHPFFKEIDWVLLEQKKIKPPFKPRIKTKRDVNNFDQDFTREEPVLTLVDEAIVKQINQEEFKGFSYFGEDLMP

[4] = target: MAP kinase-interacting serine/threonine-protein kinase 2 (Homo sapiens, UniProt Q9HBH9); assay: Selectivity interaction (KinomeScan (DiscoverX)) EUB0000045b MKNK2
[5] = target: T3, N-lysine methyltransferase KMT5A (Homo sapiens) (UniProt Q9NQR1); conditions: at 10 µM
T3 sequence (whole entry): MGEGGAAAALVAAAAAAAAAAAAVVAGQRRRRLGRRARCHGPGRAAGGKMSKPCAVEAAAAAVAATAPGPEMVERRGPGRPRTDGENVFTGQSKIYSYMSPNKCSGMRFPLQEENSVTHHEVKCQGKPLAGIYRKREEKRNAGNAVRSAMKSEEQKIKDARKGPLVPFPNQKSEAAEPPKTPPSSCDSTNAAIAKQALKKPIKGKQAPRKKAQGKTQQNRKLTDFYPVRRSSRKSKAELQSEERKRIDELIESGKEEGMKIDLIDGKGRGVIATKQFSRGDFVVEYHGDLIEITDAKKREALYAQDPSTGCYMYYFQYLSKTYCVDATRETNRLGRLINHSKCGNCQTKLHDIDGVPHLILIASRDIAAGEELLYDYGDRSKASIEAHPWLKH

[6] = tested on: Epidermal growth factor receptor (Homo sapiens), P00533 [G719S]; conditions: at 10 µM
[7] = target: T4, NUAK family SNF1-like kinase 1 (Homo sapiens) (UniProt O60285); conditions: at 10 µM
T4 sequence (whole entry): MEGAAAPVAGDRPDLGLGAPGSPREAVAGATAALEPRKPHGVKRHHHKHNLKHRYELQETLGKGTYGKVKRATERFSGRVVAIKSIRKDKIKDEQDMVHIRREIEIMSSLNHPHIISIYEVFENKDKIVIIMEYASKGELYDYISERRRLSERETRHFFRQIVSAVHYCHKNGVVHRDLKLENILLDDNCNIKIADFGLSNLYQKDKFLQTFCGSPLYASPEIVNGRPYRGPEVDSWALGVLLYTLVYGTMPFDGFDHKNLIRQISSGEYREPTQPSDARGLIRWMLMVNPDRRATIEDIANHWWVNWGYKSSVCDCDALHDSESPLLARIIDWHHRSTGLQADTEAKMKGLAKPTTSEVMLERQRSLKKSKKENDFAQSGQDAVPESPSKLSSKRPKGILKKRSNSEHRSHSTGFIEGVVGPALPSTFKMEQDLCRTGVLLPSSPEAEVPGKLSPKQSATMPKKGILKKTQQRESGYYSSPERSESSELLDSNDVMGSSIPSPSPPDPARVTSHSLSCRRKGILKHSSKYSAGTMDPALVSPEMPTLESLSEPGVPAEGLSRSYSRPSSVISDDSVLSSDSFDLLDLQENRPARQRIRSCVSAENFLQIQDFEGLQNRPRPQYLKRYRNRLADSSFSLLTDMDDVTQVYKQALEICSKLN

[8] = target: eIF-2-alpha kinase GCN2 (Homo sapiens) (UniProt Q9P2K8); assay: Selectivity interaction (ActivX KiNativ screen (kinase selectivity in THP-1 cell lysates)) EUB0000639a EIF2AK4; assay type: subcellular; conditions: lysate, at 5 µM
[9] = target: Tyrosine-protein kinase JAK2 (Homo sapiens, UniProt O60674); assay: Selectivity interaction (KinomeScan (DiscoverX)) EUB0000229b JAK2; conditions: at 10 µM
Tyrosine-protein kinase JAK2, sequence (O60674 whole entry): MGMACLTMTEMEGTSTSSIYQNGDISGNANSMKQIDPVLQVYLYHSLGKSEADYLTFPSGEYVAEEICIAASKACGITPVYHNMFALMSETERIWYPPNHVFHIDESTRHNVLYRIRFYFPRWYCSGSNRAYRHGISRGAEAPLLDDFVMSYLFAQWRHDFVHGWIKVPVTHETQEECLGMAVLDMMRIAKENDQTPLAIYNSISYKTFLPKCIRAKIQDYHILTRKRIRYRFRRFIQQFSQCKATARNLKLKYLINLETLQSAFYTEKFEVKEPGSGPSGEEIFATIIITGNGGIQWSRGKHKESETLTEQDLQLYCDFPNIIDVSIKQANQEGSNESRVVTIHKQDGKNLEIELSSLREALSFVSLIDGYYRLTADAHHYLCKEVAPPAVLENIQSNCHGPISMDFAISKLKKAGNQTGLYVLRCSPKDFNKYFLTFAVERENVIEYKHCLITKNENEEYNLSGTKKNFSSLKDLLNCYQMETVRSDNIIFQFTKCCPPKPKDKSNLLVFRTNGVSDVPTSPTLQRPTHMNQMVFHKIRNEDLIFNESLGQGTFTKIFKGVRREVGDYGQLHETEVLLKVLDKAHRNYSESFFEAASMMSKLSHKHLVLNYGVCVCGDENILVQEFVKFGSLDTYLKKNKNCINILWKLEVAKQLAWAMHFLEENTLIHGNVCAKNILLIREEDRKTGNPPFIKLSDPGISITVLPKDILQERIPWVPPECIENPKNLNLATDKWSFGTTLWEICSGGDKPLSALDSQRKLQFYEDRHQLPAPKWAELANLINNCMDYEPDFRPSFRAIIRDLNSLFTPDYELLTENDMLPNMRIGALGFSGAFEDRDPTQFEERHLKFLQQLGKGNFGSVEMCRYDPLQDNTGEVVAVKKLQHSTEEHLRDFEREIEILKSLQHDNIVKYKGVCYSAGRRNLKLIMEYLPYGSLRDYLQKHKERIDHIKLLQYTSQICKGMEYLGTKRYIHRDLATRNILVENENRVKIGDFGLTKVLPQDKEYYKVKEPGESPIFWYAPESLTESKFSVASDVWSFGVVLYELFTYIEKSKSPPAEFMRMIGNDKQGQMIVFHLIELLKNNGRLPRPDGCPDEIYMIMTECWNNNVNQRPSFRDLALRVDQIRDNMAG

MAP kinase-interacting serine/threonine-protein kinase 2, sequence (Q9HBH9 whole entry, looked up): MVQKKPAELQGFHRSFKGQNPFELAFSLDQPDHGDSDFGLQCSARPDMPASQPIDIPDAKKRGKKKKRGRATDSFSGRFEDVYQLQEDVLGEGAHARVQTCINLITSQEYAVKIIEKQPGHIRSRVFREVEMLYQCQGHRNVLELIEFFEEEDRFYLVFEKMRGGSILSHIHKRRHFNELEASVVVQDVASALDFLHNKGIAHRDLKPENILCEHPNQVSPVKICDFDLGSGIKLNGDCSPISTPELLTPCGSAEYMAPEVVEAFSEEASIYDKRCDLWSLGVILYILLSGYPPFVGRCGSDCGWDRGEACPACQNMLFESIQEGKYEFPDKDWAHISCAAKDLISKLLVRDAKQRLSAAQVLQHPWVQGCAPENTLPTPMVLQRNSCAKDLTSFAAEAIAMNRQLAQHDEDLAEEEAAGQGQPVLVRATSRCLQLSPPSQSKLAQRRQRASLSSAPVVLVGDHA
Epidermal growth factor receptor (Homo sapiens), P00533 [G719S], sequence (P00533 whole entry G719S): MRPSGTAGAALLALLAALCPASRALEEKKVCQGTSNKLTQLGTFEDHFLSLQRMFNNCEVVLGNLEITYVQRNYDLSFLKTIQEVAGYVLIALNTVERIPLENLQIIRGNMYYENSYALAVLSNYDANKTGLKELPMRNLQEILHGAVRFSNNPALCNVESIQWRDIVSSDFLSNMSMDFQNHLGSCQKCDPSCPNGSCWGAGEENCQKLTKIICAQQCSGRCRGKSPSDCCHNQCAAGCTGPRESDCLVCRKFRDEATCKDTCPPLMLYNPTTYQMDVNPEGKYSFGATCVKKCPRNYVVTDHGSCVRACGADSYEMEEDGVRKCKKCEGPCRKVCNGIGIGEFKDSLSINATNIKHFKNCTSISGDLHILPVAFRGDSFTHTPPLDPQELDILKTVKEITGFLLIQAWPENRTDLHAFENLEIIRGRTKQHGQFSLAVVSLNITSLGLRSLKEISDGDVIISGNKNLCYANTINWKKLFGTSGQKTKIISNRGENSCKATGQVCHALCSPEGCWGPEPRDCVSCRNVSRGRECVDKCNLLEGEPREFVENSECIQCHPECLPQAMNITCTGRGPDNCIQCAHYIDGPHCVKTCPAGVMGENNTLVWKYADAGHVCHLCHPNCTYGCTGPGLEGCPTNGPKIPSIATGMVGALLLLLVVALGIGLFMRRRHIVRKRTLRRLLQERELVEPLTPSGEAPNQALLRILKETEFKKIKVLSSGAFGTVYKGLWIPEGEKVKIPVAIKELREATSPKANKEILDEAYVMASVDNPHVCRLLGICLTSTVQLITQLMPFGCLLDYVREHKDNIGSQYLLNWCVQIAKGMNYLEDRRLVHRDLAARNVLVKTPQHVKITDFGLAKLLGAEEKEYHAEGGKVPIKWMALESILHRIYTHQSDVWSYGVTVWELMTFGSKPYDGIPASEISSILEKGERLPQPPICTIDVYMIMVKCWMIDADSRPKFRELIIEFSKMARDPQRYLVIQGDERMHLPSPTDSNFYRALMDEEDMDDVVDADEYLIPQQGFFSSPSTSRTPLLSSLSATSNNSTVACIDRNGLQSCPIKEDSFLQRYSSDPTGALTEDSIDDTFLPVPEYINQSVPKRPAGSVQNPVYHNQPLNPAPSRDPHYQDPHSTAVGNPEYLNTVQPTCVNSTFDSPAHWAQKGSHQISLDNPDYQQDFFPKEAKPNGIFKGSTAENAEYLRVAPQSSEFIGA
Serine/threonine-protein kinase MRCK gamma (Homo sapiens), sequence (Q6DT37 whole entry): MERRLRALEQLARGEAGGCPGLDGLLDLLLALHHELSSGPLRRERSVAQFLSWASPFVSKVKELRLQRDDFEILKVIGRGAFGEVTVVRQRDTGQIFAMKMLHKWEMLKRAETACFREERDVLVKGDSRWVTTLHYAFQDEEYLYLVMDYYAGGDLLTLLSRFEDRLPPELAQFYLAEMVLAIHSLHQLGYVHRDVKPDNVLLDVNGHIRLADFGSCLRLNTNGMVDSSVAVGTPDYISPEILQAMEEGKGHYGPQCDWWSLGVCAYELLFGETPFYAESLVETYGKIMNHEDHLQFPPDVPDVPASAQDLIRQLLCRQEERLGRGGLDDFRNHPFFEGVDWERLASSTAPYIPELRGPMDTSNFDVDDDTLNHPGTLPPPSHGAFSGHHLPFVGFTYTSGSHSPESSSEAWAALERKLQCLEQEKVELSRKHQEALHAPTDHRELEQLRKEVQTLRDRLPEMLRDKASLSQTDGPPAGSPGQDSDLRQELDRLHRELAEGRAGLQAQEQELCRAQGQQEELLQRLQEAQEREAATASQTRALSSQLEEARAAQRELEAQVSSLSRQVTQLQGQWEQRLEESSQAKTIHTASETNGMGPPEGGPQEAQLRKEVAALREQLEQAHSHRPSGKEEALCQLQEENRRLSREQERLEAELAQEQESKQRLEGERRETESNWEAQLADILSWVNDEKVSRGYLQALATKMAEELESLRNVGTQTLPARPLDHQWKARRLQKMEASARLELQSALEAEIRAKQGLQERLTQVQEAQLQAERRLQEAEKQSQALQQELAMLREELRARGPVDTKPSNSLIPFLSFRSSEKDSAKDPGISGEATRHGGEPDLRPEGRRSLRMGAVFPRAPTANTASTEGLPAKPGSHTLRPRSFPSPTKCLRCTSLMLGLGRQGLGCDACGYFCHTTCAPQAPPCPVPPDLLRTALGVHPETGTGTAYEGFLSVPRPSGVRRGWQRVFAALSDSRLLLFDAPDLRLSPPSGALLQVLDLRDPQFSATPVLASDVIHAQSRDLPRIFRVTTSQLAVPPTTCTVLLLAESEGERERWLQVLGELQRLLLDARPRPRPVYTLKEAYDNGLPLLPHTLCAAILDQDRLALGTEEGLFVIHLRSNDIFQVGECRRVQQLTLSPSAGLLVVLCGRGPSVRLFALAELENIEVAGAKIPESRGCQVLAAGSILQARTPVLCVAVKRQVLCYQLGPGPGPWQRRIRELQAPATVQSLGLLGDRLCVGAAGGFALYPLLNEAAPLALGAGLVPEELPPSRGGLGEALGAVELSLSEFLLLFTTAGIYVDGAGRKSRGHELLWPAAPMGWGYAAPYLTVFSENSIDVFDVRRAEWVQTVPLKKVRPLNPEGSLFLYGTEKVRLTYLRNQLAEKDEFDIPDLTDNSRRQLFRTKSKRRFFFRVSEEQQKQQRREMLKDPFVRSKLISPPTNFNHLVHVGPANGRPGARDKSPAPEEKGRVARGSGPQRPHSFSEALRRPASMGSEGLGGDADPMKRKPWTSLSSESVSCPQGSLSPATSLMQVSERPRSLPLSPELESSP

`CCN(CC)CCCCNc1ncc2cc(-c3cc(OC)cc(OC)c3)c(NC(=O)NC(C)(C)C)nc2n1` gave a % of control [1] of 100%.
Compound `CN(C)CCOc1ccc(-c2nc(-c3ccncc3)c(-c3ccc4c(c3)CC/C4=N\O)[nH]2)cc1` has a % of control [2] of 32%.
`CC(=O)Nc1cccc(-n2c(=O)n(C3CC3)c(=O)c3c(Nc4ccc(I)cc4F)n(C)c(=O)c(C)c32)c1` showed a % of control [3] of 103%.
`C=CC(=O)Nc1cc(-n2c(=O)ccc3cnc4ccc(-c5ccc(NS(C)(=O)=O)cc5)cc4c32)ccc1C` gave a % of control ([4]; at 1 µM) of 100% and a % of control ([4]; at 10 µM) of 52%.
With `CNCCN1CCC(c2cc(CN(C)C(=O)c3cccc(Oc4ccccc4)c3)ccn2)CC1` the % activity [5] was > 90%.
`Cc1cc([C@@H](C)Nc2ccccc2C(=O)O)c2nc(N3CCOCC3)cc(=O)n2c1` [AZD-6482] was tested, and the % of control [6] was 98% and the % of control [7] was 100%.
Work on `CC[C@@H]1[C@H](F)C(=O)N[C@@H]1COc1nccc2cc(C(N)=O)c(OC)cc12` [ZIMLOVISERTIB] yielded a % of inhibition [8] of 19.4%.
In the case of `COc1cc(N(C)c2ccnc3ccc(C(F)(F)F)cc23)cc(OC)c1OC`, the % binding [9] is reported as 97%.
